Common to all, as to assay: Growth in liquid media in presence of test compound
Common to all, as to type: cell-based

The subject of test [1] is Mycobacterium tuberculosis (H37Rv).
The subject of test [2] is Candida albicans (ATCC 90028).
Test [3] concerns Escherichia coli (ATCC 25922).
Test [4] deals with Pseudomonas aeruginosa (ATCC 27853).
The subject of test [5] is Staphylococcus aureus (ATCC 25923).
Test [6] deals with Streptococcus pyogenes (ATCC 19615).

As to `N[C@@H](Cc1ccccc1)C(=O)NC[C@@H](Cc1ccccc1)[B-](F)(F)F.[K+]` [Compound 42], the “Growth in the presence of test compound, M. tuberculosis” value (“Growth … M. tuberculosis” for short) is recorded as “+” in test [1] (5 mg/L), “−” in test [1] (50 mg/L) and “−” in test [1] (500 mg/L). Besides, the “Growth in the presence of test compound, C. albicans” value (“Growth in the presence … C. albicans” below) in test [2] (5 mg/L) is on record as “+”; in test [2] (50 mg/L), “±”; in test [2] (500 mg/L), “±”. For the same compound, the “Growth in the presence of test compound, E. coli” value (shortened to “Growth in the presence … E. coli”) in test [3] (5 mg/L), in test [3] (50 mg/L) and in test [3] (500 mg/L) was “+” throughout. Moreover, the “Growth in the presence of test compound, P. aeruginosa” value (“Growth … P. aeruginosa” for short) in test [4] (5 mg/L), in test [4] (50 mg/L) and in test [4] (500 mg/L) was “+” each time. Further, the “Growth in the presence of test compound, S. aureus” value (from here on “Growth in the presence … S. aureus”) in test [5] (5 mg/L), in test [5] (50 mg/L) and in test [5] (500 mg/L) was “+” throughout. The “Growth in the presence of test compound, S. pyogenes” value (from here on “Growth in the presence … S. pyogenes”) in test [6] (5 mg/L) is “+”; in test [6] (50 mg/L), “+”; in test [6] (500 mg/L), “±”.
For the compound `Cl.Cl.NCCCC[C@@H](N)C(=O)NC[C@@H](Cc1ccc(OC(F)(F)F)cc1)B(O)O` [Compound 43], the figures for the “Growth … M. tuberculosis” value in test [1] (5 mg/L), in test [1] (50 mg/L) and in test [1] (500 mg/L) were “+”, “+” and “−”, respectively. The “Growth in the presence … C. albicans” value in test [2] (5 mg/L) was “+”; in test [2] (50 mg/L) it was “+”; in test [2] (500 mg/L) it was “±”. Moreover, the “Growth in the presence … E. coli” value in test [3] (5 mg/L) is given as “+”; in test [3] (50 mg/L), “+”; in test [3] (500 mg/L), “−”. Further, the figures for the “Growth … P. aeruginosa” value in test [4] (5 mg/L), in test [4] (50 mg/L) and in test [4] (500 mg/L) were “+”, “+” and “−”, respectively. Also, the results for the “Growth in the presence … S. aureus” value in test [5] (5 mg/L), in test [5] (50 mg/L) and in test [5] (500 mg/L) were “+”, “+” and “−”, respectively. In addition, the “Growth in the presence … S. pyogenes” value in test [6] (5 mg/L) was “+”; in test [6] (50 mg/L), “+”; in test [6] (500 mg/L), “−”.
Consider `CC1(C)C2CC3OB(CC(Cc4ccccc4)NC(=O)C(N)CCCCN)OC3(C)C1C2` (stereo not drawn) [Compound 44], for which the results for the “Growth … M. tuberculosis” value in test [1] (5 mg/L), in test [1] (50 mg/L) and in test [1] (500 mg/L) were “+”, “+” and “−”, respectively. Also, the “Growth in the presence … C. albicans” value in test [2] (5 mg/L) is reported as “+”; in test [2] (50 mg/L), “+”; in test [2] (500 mg/L), “±”. Also, the entries for the “Growth in the presence … E. coli” value in test [3] (5 mg/L), in test [3] (50 mg/L) and in test [3] (500 mg/L) were “+”, “+” and “−”, respectively. Moreover, the “Growth … P. aeruginosa” value in test [4] (5 mg/L) is reported as “+”; in test [4] (50 mg/L), “+”; in test [4] (500 mg/L), “−”. Besides, the “Growth in the presence … S. aureus” value in test [5] (5 mg/L) was “+”; in test [5] (50 mg/L) it was “+”; in test [5] (500 mg/L), “−”. Moreover, the entries for the “Growth in the presence … S. pyogenes” value in test [6] (5 mg/L), in test [6] (50 mg/L) and in test [6] (500 mg/L) were “+”, “+” and “−”, respectively.
As to `CC1(C)C2CC3OB(C[C@@H](Cc4ccccc4)NC(=O)[C@H](Cc4ccccc4)NC(=O)[C@@H](N)Cc4ccccc4)O[C@]3(C)C1C2.Cl` (stereo partly drawn) [Compound 45], the results for the “Growth … M. tuberculosis” value in test [1] (5 mg/L), in test [1] (50 mg/L) and in test [1] (500 mg/L) were “+”, “−” and “+”, respectively. Moreover, the results for the “Growth in the presence … C. albicans” value in test [2] (5 mg/L), in test [2] (50 mg/L) and in test [2] (500 mg/L) were “+”, “+” and “−”, respectively. Also, the “Growth in the presence … E. coli” value in test [3] (5 mg/L), in test [3] (50 mg/L) and in test [3] (500 mg/L) was “+” in each case. Also, the “Growth … P. aeruginosa” value in test [4] (5 mg/L), in test [4] (50 mg/L) and in test [4] (500 mg/L) was “+” in each case. For the same compound, the “Growth in the presence … S. aureus” value in test [5] (5 mg/L) is given as “+”; in test [5] (50 mg/L), “±”; in test [5] (500 mg/L) it was “+”. The “Growth in the presence … S. pyogenes” value in test [6] (5 mg/L), in test [6] (50 mg/L) and in test [6] (500 mg/L) was “+” in each case.
For `Cl.Cl.NCCCC[C@H](N)C(=O)NC[C@@H](Cc1ccc(F)cc1)B(O)O` [Compound 46], the “Growth … M. tuberculosis” value in test [1] (5 mg/L), in test [1] (50 mg/L) and in test [1] (500 mg/L) was “−” in each case. In addition, the “Growth in the presence … C. albicans” value in test [2] (5 mg/L) is listed as “+”; in test [2] (50 mg/L) it was “+”; in test [2] (500 mg/L), “±”. Also, the “Growth in the presence … E. coli” value in test [3] (5 mg/L), in test [3] (50 mg/L) and in test [3] (500 mg/L) was “+” each time. Besides, the “Growth … P. aeruginosa” value in test [4] (5 mg/L), in test [4] (50 mg/L) and in test [4] (500 mg/L) was “+” in each case. The “Growth in the presence … S. aureus” value in test [5] (5 mg/L), in test [5] (50 mg/L) and in test [5] (500 mg/L) was “+” each time. Further, the “Growth in the presence … S. pyogenes” value in test [6] (5 mg/L), in test [6] (50 mg/L) and in test [6] (500 mg/L) was “+” throughout.
Turning to `CC1(C)C2CC3OB(C(CNC(=O)C(N)CCCCN)Cc4ccc(OC(F)(F)F)cc4)OC3(C)C1C2.Cl.Cl` (stereo not drawn) [Compound 47], the “Growth … M. tuberculosis” value is reported as “+” in test [1] (5 mg/L), “−” in test [1] (50 mg/L) and “−” in test [1] (500 mg/L). The “Growth in the presence … C. albicans” value is “+” in test [2] (5 mg/L), “+” in test [2] (50 mg/L) and “−” in test [2] (500 mg/L). Besides, the “Growth in the presence … E. coli” value is recorded as “+” in test [3] (5 mg/L), “+” in test [3] (50 mg/L) and “−” in test [3] (500 mg/L). Also, the entries for the “Growth … P. aeruginosa” value in test [4] (5 mg/L), in test [4] (50 mg/L) and in test [4] (500 mg/L) were “+”, “+” and “−”, respectively. The “Growth in the presence … S. aureus” value in test [5] (5 mg/L) is “+”; in test [5] (50 mg/L), “+”; in test [5] (500 mg/L), “−”. Further, the entries for the “Growth in the presence … S. pyogenes” value in test [6] (5 mg/L), in test [6] (50 mg/L) and in test [6] (500 mg/L) were “+”, “+” and “−”, respectively.
On to `Cl.Cl.NCCCC[C@@H](N)C(=O)NC[C@@H](Cc1ccccc1)B(O)O` [Compound 48], for which the “Growth … M. tuberculosis” value in test [1] (5 mg/L) is “±”; in test [1] (50 mg/L), “−”; in test [1] (500 mg/L) it was “−”. Besides, the “Growth in the presence … C. albicans” value in test [2] (5 mg/L), in test [2] (50 mg/L) and in test [2] (500 mg/L) was “+” each time. Further, the “Growth in the presence … E. coli” value in test [3] (5 mg/L), in test [3] (50 mg/L) and in test [3] (500 mg/L) was “+” throughout. For the same compound, the “Growth … P. aeruginosa” value in test [4] (5 mg/L), in test [4] (50 mg/L) and in test [4] (500 mg/L) was “+” in each case. The “Growth in the presence … S. aureus” value in test [5] (5 mg/L), in test [5] (50 mg/L) and in test [5] (500 mg/L) was “+” throughout. For the same compound, the “Growth in the presence … S. pyogenes” value in test [6] (5 mg/L), in test [6] (50 mg/L) and in test [6] (500 mg/L) was “+” each time.
Regarding `CC1(C)C2CC3OB([C@@H](CNC(=O)[C@@H](N)Cc4ccccc4)Cc4ccc(F)cc4)O[C@]3(C)C1C2.Cl` (stereo partly drawn) [Compound 49], the entries for the “Growth … M. tuberculosis” value in test [1] (5 mg/L), in test [1] (50 mg/L) and in test [1] (500 mg/L) were “±”, “−” and “−”, respectively. For the same compound, the “Growth in the presence … C. albicans” value in test [2] (5 mg/L), in test [2] (50 mg/L) and in test [2] (500 mg/L) was “+” throughout. The “Growth in the presence … E. coli” value in test [3] (5 mg/L), in test [3] (50 mg/L) and in test [3] (500 mg/L) was “+” throughout. In addition, the “Growth … P. aeruginosa” value in test [4] (5 mg/L), in test [4] (50 mg/L) and in test [4] (500 mg/L) was “+” each time. Besides, the “Growth in the presence … S. aureus” value in test [5] (5 mg/L), in test [5] (50 mg/L) and in test [5] (500 mg/L) was “+” in each case. The “Growth in the presence … S. pyogenes” value in test [6] (5 mg/L), in test [6] (50 mg/L) and in test [6] (500 mg/L) was “+” in each case.

Source of the values: patent publication US20150018311A1, “THERAPEUTIC BORON-CONTAINING COMPOUNDS” (priority 2012, published 2015).
